What was measured:
skin fibrosis = assay: Morphology of skin biopsy specimens, H&E staining of paraffin embedded sections; format: in vivo, human
Procedure: Patients seen at the Northwestern Scleroderma Program who met American College of Rheumatology criteria for SSc with a mRSS≧16 and would be receiving mycophenolate mofetil for the indication of progressive skin tightening were assessed. All patients provided written informed consent in accordance with the Institutional Review Board Guidelines of Northwestern University. Patients underwent a standardized physical exam, including mRSS performed by one clinician at study entry (prior to treatment) and at 6 months and 12 months post MMF initiation. […] from clinically involved skin (forearm) and clinically uninvolved skin (back) from the non-dominant side of the body. Two biopsies (one from forearm and back) were placed in RNAlater® (Applied Biosystems, Ambion®, Carlsbad, Calif., U.S.A.) and used for DNA microarray analysis and the other biopsy was placed in 10% neutral buffered formalin and used for histological analyses.
To confirm the physical exam finding of softened skin in MMF-responders, the morphology of skin biopsy specimens was examined using routine H&E staining of paraffin embedded sections.

[1] = SSc patients; cited from earlier work

Row | Compound | extent of skin fibrosis, pre- vs post-treatment biopsies (skin fibrosis; MMF responders) | skin fibrosis and dermal appendages (skin fibrosis; MMF-nonresponder) | clinical response [1]
1 | COc1c(C)c2c(c(O)c1C/C=C(\C)CCC(=O)OCCN1CCOCC1)C(=O)OC2 [MMF, mycophenolate mofetil] | clear differences in the extent of fibrosis between pre- and post-treatment biopsies in responders | greater degree in skin fibrosis and a further loss of the normal dermal appendages | –
2 | rituximab | – | – | no clinical benefit
